Where “and” joins values, the source holds several entries; their conditions need not be identical. Identical values can stand only once. Like-named read-outs stand apart in the source and are kept apart here.
Assays:
[1] = biological target: T1, Cav3.3 (Homo sapiens, UniProt Q9P0X4); experiment: Cav3.3 FLIPR calcium influx assay (HEK 293 cells); assay type: cell-based; conditions: read-out: IC50
T1 construct: expressed in transfected cells; host or cells: HEK 293

[2] = In vitro plasma protein binding, dog; assay type: in vitro ADME
Excerpt: (§1) CX-8998 distributes readily to the brain in rats and to brain and cerebral spinal fluid (CSF) in dogs.

[3] = 90-day oral toxicology in Beagle dogs; conditions: dog, in vivo; for NOAEL at 90 days: both
[4] = system: CYP1A2, CYP3A4, CYP2C8, CYP2C9, CYP2C19, CYP2D6, CYP2B6; experiment: CYP inhibition in human liver microsomes; assay type: in vitro ADME
[5] = system: T2, CYP1A2, CYP3A4, CYP2C8, CYP2C9, CYP2C19, CYP2D6; experiment: CYP inhibition in human liver microsomes; assay type: in vitro ADME; conditions: human liver microsomes
T2 construct: IC50, CYP1A2, CYP3A4, CYP2C8, CYP2C9, CYP2C19, CYP2D6; other: human liver microsomes

[6] = biological target: T3, breast cancer resistance protein (BCRP) (Homo sapiens, UniProt Q9UNQ0); experiment: BCRP transport; assay type: in vitro ADME; conditions: 30 μM
T3 sequence (Q9UNQ0 1-655): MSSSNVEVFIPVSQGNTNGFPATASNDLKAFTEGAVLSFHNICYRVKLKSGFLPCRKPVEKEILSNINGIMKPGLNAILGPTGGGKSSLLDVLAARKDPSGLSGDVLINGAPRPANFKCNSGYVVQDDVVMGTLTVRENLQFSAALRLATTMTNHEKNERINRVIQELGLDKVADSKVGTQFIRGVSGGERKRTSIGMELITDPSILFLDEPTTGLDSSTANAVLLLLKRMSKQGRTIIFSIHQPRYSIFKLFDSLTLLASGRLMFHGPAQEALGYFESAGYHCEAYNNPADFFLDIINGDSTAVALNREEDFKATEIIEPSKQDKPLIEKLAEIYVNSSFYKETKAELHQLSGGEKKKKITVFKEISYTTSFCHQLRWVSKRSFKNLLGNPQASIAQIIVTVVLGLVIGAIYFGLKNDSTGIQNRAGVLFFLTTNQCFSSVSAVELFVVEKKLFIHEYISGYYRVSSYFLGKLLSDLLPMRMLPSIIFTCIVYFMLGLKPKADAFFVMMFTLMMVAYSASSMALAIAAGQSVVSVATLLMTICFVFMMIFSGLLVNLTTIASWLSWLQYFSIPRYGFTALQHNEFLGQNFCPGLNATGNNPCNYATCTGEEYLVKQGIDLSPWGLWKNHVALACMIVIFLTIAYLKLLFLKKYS
Excerpt: (§2) Glucuronide conjugates of the oxygenated metabolites are detected in human, monkey, and dog hepatocyte preparations. […] However, the abundance of CYP3A5, CYP2C19, and CYP2D6 in human liver microsomes is low (2%-5%) relative to the primary contributors, CYP3A4 (˜30%) and CYP2C9 (˜20%). […] Information on reproductive and developmental toxicology was obtained in a 28-day pivotal female fertility study in rats and in preliminary embryo-fetal development studies in rats and rabbits.

[7] = system: WAG/Rij rats; experiment: WAG/Rij rat model of absence epilepsy; assay type: in vivo
Excerpt: Other T-type antagonists from structurally diverse series have shown similar efficacy in this model (Broicher, 2007; Blumenfeld, 2008; Broicher, 2008; Shipe, 2008; Yang, 2008; Uebele, 2009; Russo, 2010; Russo, 2011).
Data were scored with automated seizure analysis software, averaged, and normalized to enable treatment comparisons (FIG. 76)
Control animals received vehicle administrations. […] Source: Merck TTA Package Description (FIG. 79).

[8] = Pharmacokinetics in dogs; assay type: in vivo, dog
Protocol: (§3) The validity and reproducibility of the assays were determined, and the precision and accuracy for calibration standards and quality control samples were examined. […] The analytes were stable in plasma under the storage and assay conditions. […] Assay performances were satisfactory and met acceptance criteria for system performance suitability, quantitation range, calibration linearity, assay accuracy and precision, and assay recovery.

[9] = In vitro plasma protein binding, human; assay type: in vitro ADME
[10] = in vivo; conditions: rat, po
[11] = Simulated Css and total active moiety, 10 mg BID; set-up: species or system human; conditions: for Css, estimated mean / Steady-state AUC24, estimated mean: CX-8998 10 mg twice daily fasted
[12] = Pharmacokinetics in rhesus monkeys; assay type: in vivo, rhesus monkey
Protocol: as §3

[13] = In vitro plasma protein binding, monkey; assay type: in vitro ADME
Excerpt: as §1

[14] = Pharmacokinetics in rats; assay type: in vivo, rat
Protocol: as §3

[15] = system: P-glycoprotein; experiment: P-glycoprotein bidirectional transport; assay type: in vitro ADME, human, monkey, and rat
Excerpt: as §2

[16] = 4-week oral toxicology in Beagle dogs
[17] = simulated from CX-8998 10 mg BID
[18] = Monkey, IV 2 mg/kg, mean (SD), 3 animals
[19] = Rat, IV 2 mg/kg, mean of 2 animals
[20] = Beagle dog, 4-week toxicity, oral gavage

T1 sequence (Q9P0X4 whole entry, species assumed): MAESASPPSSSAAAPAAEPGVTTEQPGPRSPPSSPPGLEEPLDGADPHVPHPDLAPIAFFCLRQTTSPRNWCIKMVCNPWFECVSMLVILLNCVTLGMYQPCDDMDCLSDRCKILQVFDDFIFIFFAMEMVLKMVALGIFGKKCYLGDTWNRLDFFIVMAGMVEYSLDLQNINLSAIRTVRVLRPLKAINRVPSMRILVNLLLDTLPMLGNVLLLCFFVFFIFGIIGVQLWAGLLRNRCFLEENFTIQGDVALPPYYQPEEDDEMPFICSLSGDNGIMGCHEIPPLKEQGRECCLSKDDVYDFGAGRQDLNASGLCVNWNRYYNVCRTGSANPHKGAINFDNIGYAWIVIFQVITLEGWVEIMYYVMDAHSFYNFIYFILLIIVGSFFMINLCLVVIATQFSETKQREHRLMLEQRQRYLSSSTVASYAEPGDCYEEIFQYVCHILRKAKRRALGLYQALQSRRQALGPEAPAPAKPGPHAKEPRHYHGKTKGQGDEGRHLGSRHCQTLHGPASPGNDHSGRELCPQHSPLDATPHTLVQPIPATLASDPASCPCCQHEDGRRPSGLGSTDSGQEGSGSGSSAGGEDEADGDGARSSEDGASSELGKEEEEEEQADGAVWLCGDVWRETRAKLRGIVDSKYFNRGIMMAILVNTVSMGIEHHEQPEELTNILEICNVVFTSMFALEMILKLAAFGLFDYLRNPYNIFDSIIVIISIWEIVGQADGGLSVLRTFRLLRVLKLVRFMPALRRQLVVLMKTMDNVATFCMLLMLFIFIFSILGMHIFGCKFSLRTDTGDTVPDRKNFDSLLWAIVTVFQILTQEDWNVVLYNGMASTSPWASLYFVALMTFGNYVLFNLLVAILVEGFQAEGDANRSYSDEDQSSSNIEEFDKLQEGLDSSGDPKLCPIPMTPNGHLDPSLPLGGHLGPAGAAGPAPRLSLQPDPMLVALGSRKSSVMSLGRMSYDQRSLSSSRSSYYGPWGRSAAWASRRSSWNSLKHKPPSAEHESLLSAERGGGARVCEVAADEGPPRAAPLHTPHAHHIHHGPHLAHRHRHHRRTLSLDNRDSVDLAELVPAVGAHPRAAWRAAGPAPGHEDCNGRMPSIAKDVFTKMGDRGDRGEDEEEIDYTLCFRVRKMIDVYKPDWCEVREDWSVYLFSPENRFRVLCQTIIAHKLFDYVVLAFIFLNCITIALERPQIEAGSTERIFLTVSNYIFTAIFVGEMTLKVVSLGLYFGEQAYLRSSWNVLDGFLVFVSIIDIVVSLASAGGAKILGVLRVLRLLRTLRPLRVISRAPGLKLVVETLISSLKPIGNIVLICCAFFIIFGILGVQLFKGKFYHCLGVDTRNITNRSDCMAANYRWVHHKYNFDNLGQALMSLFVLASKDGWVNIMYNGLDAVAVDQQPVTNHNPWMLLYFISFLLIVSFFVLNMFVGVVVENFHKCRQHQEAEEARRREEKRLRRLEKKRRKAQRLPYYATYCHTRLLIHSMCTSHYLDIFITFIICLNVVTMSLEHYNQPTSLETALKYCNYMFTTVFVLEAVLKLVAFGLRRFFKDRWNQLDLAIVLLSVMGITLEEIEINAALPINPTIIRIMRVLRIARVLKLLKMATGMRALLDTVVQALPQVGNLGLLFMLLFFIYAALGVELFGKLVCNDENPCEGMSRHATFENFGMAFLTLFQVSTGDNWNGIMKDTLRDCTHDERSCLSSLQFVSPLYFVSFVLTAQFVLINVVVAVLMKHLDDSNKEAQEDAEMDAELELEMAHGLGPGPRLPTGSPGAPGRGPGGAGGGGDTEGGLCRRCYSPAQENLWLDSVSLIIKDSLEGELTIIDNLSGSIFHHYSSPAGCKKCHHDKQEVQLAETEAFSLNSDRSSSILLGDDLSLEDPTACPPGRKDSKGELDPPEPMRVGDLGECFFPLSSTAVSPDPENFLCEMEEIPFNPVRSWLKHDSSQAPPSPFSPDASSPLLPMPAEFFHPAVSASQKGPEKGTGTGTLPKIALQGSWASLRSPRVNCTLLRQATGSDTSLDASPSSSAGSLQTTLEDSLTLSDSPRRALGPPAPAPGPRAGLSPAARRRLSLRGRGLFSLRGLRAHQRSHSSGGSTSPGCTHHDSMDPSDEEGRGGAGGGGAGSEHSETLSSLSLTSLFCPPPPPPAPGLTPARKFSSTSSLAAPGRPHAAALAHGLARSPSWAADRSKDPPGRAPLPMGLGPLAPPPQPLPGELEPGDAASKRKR

With `CC(C)c1ccc(CC(=O)N[C@H](C)c2ccc(OCC(F)(F)F)cn2)cc1` [CX-8998] the IC50 ([1]; depolarizing conditions) was ~3.6 nM and 3.6 nM, the IC50 ([1]; hyperpolarizing conditions) was ~161 nM and 161 nM and the fraction unbound ([2]; dog plasma, read-out: In vitro plasma protein binding (converted)) was about 0.003. It also gave a fraction unbound ([2]; dogs, read-out: free fraction) of 0.003, a fraction unbound ([2]; read-out: Free fraction in dog plasma) of 0.003 and an NOAEL at 90 days ([3]; Beagle, po) of 30 mg/kg/day. The NOAEL at 90 days ([3]; beagle, oral) was 30 mg/kg/day, the AUC ([3]; female, Beagle, po, 10 mg/kg/day) was 163 µM·h and the AUC ([3]; female, beagle, po, 30 mg/kg/day) was 363 µM·h. The AUC ([3]; male, Beagle, po, 30 mg/kg/day) was 335 µM·h, the “Time-dependent inhibition of CYP3A4 or CYP2B6” value [4] was “insignificant” and the IC50 [5] was over 20000 nM. For the same compound, the “Inhibition of BCRP transport” value [6] was 57%, the “Reduction in cumulative time spent in seizure” value ([7]; 1 mg/kg, 4 hours after dosing) was 55% and the “Suppression of seizure frequency” value ([7]; 10 mg/kg) was “up to 50%”. The Percent of inhibition ([7]; 10 mg/kg oral) was 77%, the “Suppression of accumulated time in seizure” value ([7]; 10 mg/kg, 4 hours after dosing) was 77% and the “Suppression of accumulated time in seizure” value ([7]; 10 mg/kg, 15 hours after dosing) was 54%. The t½ ([8]; Dog, IV […], mean (SD), 3 animals) was 7.3 (3.1) hr, the F ([8]; Dog, oral 0.5 mg/kg vs IV […], mean (SD)) was 76 (47) % and the “Vdss, mean” value ([8]; dog, in vivo) was 0.8 L/kg. The half-life ([8]; dog, in vivo) was 7.3 h, the bioavailability ([8]; dog, plasma, po, 0.5 mg/kg, single dose) was 76% and the fraction unbound ([9]; human plasma, read-out: Human-free fraction) was 0.004. It also gave a fraction unbound ([9]; human plasma, read-out: In vitro plasma protein binding (converted)) of about 0.004, a fraction unbound ([9]; humans, read-out: free fraction) of 0.004 and a half-life ([10]; female, 5 mg/kg/day) of 1.6 h. For the same compound, the half-life ([10]; female, 100 mg/kg/day) was 9.25 h, the half-life ([10]; female, 300 mg/kg/day) was 5.28 h and the half-life ([10]; male, 15 mg/kg/day) was 2.87 h. The Tmax ([10]; male, 100 mg/kg/day) was 2 h, the half-life ([10]; male, 100 mg/kg/day) was 3.72 h and the half-life ([10]; male, 300 mg/kg/day) was 5.68 h. For the same compound, the “Css, estimated mean” value ([11]; middle-aged and elderly men) was 874 nM, the “Steady-state AUC24, estimated mean” value ([11]; middle-aged and elderly men) was 20.976 µM·h and the “Css, estimated mean” value ([11]; middle-aged and elderly women) was 981 nM. The “Steady-state AUC24, estimated mean” value ([11]; middle-aged and elderly women) was 23.544 µM·h, the “Css, estimated mean” value ([11]; young men) was 583 nM and the “Steady-state AUC24, estimated mean” value ([11]; young men) was 13.992 µM·h. For the same compound, the “Cu, ss_adj” value ([11]; adjusted for fu and potency, 10 mg BID) was 2.3 nM, the “Cp, ss” value [11, 17] was 583 nM and the “Cu, ss” value [11, 17] was 2.3 nM. The CL [12, 18] was 15.9 (2.5) mL/min/kg, the t½ [12, 18] was 1.3 (0.3) hr and the F ([12]; Monkey, oral 20 mg/kg vs IV 2 mg/kg, mean (SD)) was 2.8 (10.) %. For the same compound, the Plasma clearance ([12]; rhesus monkey, in vivo) was 16 mL/min/kg, the “Vdss, mean” value ([12]; rhesus monkey, in vivo) was 0.9 L/kg and the half-life ([12]; rhesus monkey, in vivo) was 1.3 h. It also gave a fraction unbound [13] of about 0.012, a CL [14, 19] of 29 mL/min/kg and a t½ [14, 19] of 0.8 h. For the same compound, the F ([14]; Rat, oral 10 mg/kg vs IV 2 mg/kg, mean (SD)) was 42 (13) %, the Plasma clearance ([14]; rat, in vivo) was 29 mL/min/kg and the half-life ([14]; rat, in vivo) was 0.8 h. For the same compound, the bioavailability ([14]; rat, plasma, po, 10 mg/kg, single dose) was 42%, the t½ ([14]; rodents) was 0.8 h and the “P-glycoprotein substrate or inhibitor activity” value [15] was “did not demonstrate any activity as a substrate or inhibitor”. For the same compound, the NOEL [16, 20] was “NOEL. 20 mg/kg/day. Dose-limiting”, the “dose at which dose-limiting toxicity (mortality, physical signs) was observed” value [16, 20] was “observed at 800 mg/kg/day” and the NOEL ([16]; dog, in vivo) was 20 mg/kg/day. For the same compound, the “Safety margin (AUC24) at the NOEL over expected clinical exposure” value ([16]; dog, in vivo) was “approximately 30 fold”.
